The record followed here is publication PMC8838847, “Design, Synthesis and Cytotoxicity of Thiazole-Based Stilbene Analogs as Novel DNA Topoisomerase IB Inhibitors” (Molecules, 2022).

The subject of data set [1] is human colon cancer (HCT116) cells. Kind of data set: MTT cytotoxicity assay, HCT116. It is filed as cell-based. The following applies: five doses 0.01-100 µM. As to the method: (§1) The cytotoxicity of the desired compounds was assessed through MTT assay against two human cancer cell lines, human breast cancer (MCF-7) and colon cancer (HCT116), and one normal cell line, human embryonic kidney 293T (HEK293T). CPT and etoposide (VP-16) were used as positive controls. The compounds were incubated with cells for 72 h in a five-dose assay ranging from 0.01 to 100 µΜ. After the drug treatments, MTT solution was added to test the percentage growth of tumor cells.
(§2) The cells were cultured on RPMI 1640 Medium at 37 °C in a humidified atmosphere with 5% CO2. The cytotoxicities of the target compounds were evaluated through MTT assay against two human cancer cell lines (human breast cancer MCF-7 and human colon cancer HCT116). For the compound treatment experiments, the cancer cells were treated with the compounds (pre-dissolved in DMSO) via a five-dose assay ranging from 10^−8 to 10^−4 M. After incubation for 72 h at 37 °C, MTT solution (20 μL, 2.5 mg/mL) in PBS (PBS without MTT as the blank) was added to each well of the culture plate. After incubation for 4 h, the formazan crystal formed in the well was dissolved in 100 μL of DMSO for an optical density of 570 nm. The IC50 value was calculated using nonlinear regression analysis (GraphPad Prism). Every experiment was conducted three times, independently.

The target of a further data set is T1, calf thymus Top1 (Bos taurus, UniProt F1MN93).
T1 construct: 1 unit of calf thymus Top1; from tissue; host or cells: calf thymus
T1 sequence (F1MN93 1-767): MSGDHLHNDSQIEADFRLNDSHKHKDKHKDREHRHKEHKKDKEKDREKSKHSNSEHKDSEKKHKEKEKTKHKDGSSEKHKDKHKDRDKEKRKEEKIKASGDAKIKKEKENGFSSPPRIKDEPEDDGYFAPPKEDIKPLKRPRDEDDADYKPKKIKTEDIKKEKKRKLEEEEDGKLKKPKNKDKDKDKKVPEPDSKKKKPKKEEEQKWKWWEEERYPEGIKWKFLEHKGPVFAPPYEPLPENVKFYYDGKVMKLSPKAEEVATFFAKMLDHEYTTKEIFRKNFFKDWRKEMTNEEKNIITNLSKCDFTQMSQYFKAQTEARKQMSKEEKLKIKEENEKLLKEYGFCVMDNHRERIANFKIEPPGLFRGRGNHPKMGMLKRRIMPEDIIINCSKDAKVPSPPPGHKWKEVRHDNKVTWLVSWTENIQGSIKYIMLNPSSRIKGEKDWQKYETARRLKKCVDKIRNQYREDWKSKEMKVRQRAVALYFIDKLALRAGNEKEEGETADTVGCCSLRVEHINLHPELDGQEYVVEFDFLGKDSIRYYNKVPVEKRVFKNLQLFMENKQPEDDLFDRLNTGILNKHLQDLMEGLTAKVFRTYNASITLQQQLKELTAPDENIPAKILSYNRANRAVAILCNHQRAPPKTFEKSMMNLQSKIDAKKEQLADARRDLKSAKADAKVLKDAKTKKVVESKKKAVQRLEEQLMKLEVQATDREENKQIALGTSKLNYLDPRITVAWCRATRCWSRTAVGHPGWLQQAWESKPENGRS
Briefly: Top1-mediated DNA relaxation assay. The note with it: compounds at 50 µM; semi-quantitative, relative to CPT at 50 µM. It is filed as biochemical. As to the method: The synthesized compounds 6–37 were evaluated for Top1 inhibitory activity by measurement of the Top1-mediated DNA relaxation assay. The compounds were tested at 50 µΜ using CPT as positive control, and the results were semi-quantitatively expressed relative to CPT at 50 µΜ as follows: ++++, more than 80% activity; +++, between 40% and 79% activity; ++, between 10% and 39% activity; +, less than 10% activity. […] In phenyl A, the 4-position halogen (X) remarkably affected the inhibition against Top1. […] In phenyl B, the introduction of substituents at the 3-position was beneficial for the Top1 inhibition, and the derivatives presented good tolerance of the 3-substituents, since compounds 8 (++++) and 13 (+++) with electron-donating -Me or -OMe and also compound 19 (+++) with electron-withdrawing -Br had good inhibition against Top1. For substituents at the 4-position, the strong electron-withdrawing -CF3 (10, +++) and -F (15, +++) increased the Top1 inhibitory activity compared to compound 6 (R = H), while the weak electron-withdrawing -Cl (17, +) and the electron-donating -Me (9, +) and -OMe (14, +) decreased the activity, with the exception of tert-Bu (11, +++).
As previously mentioned, compound 8 had the best inhibition activity against Top1, and therefore was selected for further investigation. A semi-quantitative Top1-mediated relaxation assay of compound 8 was performed at concentrations of 0.2, 1, 5, 25 and 125 μM.
The compounds were tested for their Top1 inhibitory activity using a Top1-mediated relaxation assay. Briefly, the reaction mixture (20 μL) with 0.5 μg of supercoiled pBR322 DNA in relaxation buffer (10 mM Tris-HCl, pH 7.5, 50 mM KCl, 5 mM MgCl2, 15 μg/mL BSA, 40 μg/mL DTT) was incubated with 1 unit of calf thymus Top1 in the absence or in the presence of the compound for 30 min at 37 °C. Then, the reaction solution was added with 6 × loading buffer (4 μL) and was analyzed using a 0.8% agarose gel in TBE buffer at 4.6 V/cm for 1.5 h. Gel was stained with 1 × GelRed for 30 min and subsequently visualized with a UV transilluminator.

The test system of data set [2] is human embryonic kidney 293T (HEK293T) cells. Kind of data set: MTT cytotoxicity assay, HEK293T normal cells. Type of data set: cell-based. The following applies: 72 h, normal cell line. As to the method: as §1, §2
For orientation: Tetrazolium assays rely on reduction of a dye to a coloured formazan, in cell work by metabolically active cells.

A short description of data set [3]: MTT cytotoxicity assay, HEK293T normal cells. It is filed as cell-based, human. The following applies: human, HEK293T cells (normal cell line). As to the method:
as §1, §2

Data set [4] has as its system human breast cancer (MCF-7) cells. Briefly: MTT cytotoxicity assay, MCF-7. It is filed as cell-based. The note with it: five doses 0.01-100 µM. The protocol:
as §1, §2

Structures are written as SMILES. Some results are limits rather than exact numbers.

Broadly, the IC50 is the midpoint of a concentration-inhibition curve. Read a low IC50 as inhibition by little substance. The melting point is the temperature of the solid-liquid transition. In turn, `CC(C)(C)c1ccc(/C=C/c2nc(-c3ccc(Cl)cc3)cs2)cc1` [Compound 23, (E)-4-(4-chlorophenyl)-2-(4-(tert-butyl)styryl)thiazole] yielded a melting point of 74 to 75 °C. This compound also registered an IC50 in data set [1] (72 h) of 2.87 ± 0.26 µM. The IC50 in data set [1] (Homo sapiens, HCT-116, 72 h) was under 5 µM. For the same compound, the “Relaxation Assay (Top1 inhibitory activity)” value on calf thymus Top1 is on record as “+ (less than 10% activity)”. For the same compound, the IC50 in data set [2] was determined as 18.7 ± 1.37 µM. Also, the 50% inhibitory concentration (IC50) at 72 h in data set [3] was over 10 µM. The compound further registered a concentration for half-maximal inhibition (IC50) in data set [4] (72 h) of 7.22 ± 0.4 µM. This compound also came in with an IC50 in data set [4] (Homo sapiens, MCF7, 72 h) of under 10 µM.
